The record followed here is patent US6472166B1, “Method for determining the effects of a growth-altering agent on a microbial colony” (Wardlaw Partners LP, priority 2000, dated 2002).

What all share (format): cell-based
For one assay, the system named is E. coli. In words: Microcolony growth imaging of E. coli on Kirby-Bauer type growth medium. The settings on record: 2 μg/ml, two-hour incubation, E. coli microcolonies, FIG. 2D. As for the experimental part:
(§1) FIGS. 2A-2D, 3A-3D, and 4A-4D show digital images of various microorganisms exposed to different growth-altering agents. Here again, the images contained in panels “A” and “B” of each FIGURE were taken immediately after inoculation, and the images contained in panels “C” and “D” of each FIGURE were taken after about two hours of incubation. None of the images in FIGS. 2A-2D, 3A-3D, and 4A-4D are enhanced by digital processing. The images contained in panels “B” and “D” of each FIGURES show regions of the growth medium that have been exposed to a growth-altering agent. The images contained in panels “A” and “C” of each FIGURE have not been exposed to a growth-altering agent and can be used as control reference areas.
The images contained in FIGS. 2A and 2B show regions of a Kirby-Bauer type growth medium immediately after inoculation with E. coli. The images contained in FIGS. 2C and 2D show the same regions after a two-hour incubation period. […] If it is desired to find the threshold of microbial sensitivity, such as is done to determine the minimum inhibitory concentration (MIC), then a series of separate regions each containing a certain concentration of the growth-altering agent may be used and the relative growth in each separate region evaluated. […]

Another assay relates to E. faecalis. In words: Microcolony growth imaging of E. faecalis on Kirby-Bauer type growth medium. The conditions noted are these: 2 μg/ml, two-hour incubation, E. faecalis microcolonies, FIG. 3D. The procedure: as §1
The images contained in FIGS. 3A and 3B show regions of a Kirby-Bauer type growth medium immediately after inoculation with E. faecalis. The images contained in FIGS. 3C and 3D show the same regions after a two-hour incubation period.

Another assay relates to E. faecium. The assay is described as follows: Microcolony growth imaging of E. faecium on Kirby-Bauer type growth medium. The conditions noted are these: 2 μg/ml, two-hour incubation, E. faecium microcolonies, FIG. 4D. As for the experimental part: as §1
The images contained in FIGS. 4A and 4B show regions of a Kirby-Bauer type growth medium immediately after inoculation with E. faecium. The images contained in FIGS. 4C and 4D show the same regions after a two-hour incubation period.

Consider `CO/N=C(\C(=O)N[C@@H]1C(=O)N2C(C(=O)O)=C(COC(C)=O)CS[C@H]12)c1csc(N)n1` [cefotaxime], for which the “microcolony perimeter/area ratio characteristic” value in the assay with E. coli is “increased perimeter/area ratio characteristic”.

Turning to `CN[C@H](CC(C)C)C(=O)N[C@H]1C(=O)N[C@@H](CC(N)=O)C(=O)N[C@H]2C(=O)N[C@H]3C(=O)N[C@H](C(=O)N[C@H](C(=O)O)c4cc(O)cc(O)c4-c4cc3ccc4O)[C@H](O)c3ccc(c(Cl)c3)Oc3cc2cc(c3O[C@@H]2O[C@H](CO)[C@@H](O)[C@H](O)[C@H]2O[C@H]2C[C@](C)(N)[C@H](O)[C@H](C)O2)Oc2ccc(cc2Cl)[C@H]1O` [vancomycin], the microcolony growth entry in the assay on E. faecalis was “do not appear to exhibit any growth”; with E. faecium, “show detectable growth”.
